From patent US20110300570A1, “METHOD AND SYSTEM FOR GENERATING SPATIALLY AND TEMPORALLY CONTROLLABLE CONCENTRATION GRADIENTS” (THE BRIGHAM AND WOMEN'S HOSPITAL, INC., priority 2008, published 2011)

Columns and labels:
HL-1 cells [1] = assay: Cytotoxicity testing with HL-1 cells seeded in a 96-well plate; assay type: cell-based; settings: HL-1 cells in 96-well plate, various concentrations of toxin
Description: In this example, the stabilized, spatially and temporally controllable concentration gradient technique is utilized for cytotoxicity testing. A cardiac muscle cell line (HL-1) is used to investigate the cytotoxicity of Alpha-cypermethrin, a cardiac toxin. Three drops of 2 μL medium containing 20 mM Alpha-cypermethrin were loaded consecutively into the micro-devices with HL-1 cells seeded along the channel. […] The cytotoxicity of the toxin gradient was further tested on the HL-1 cells by conducting a live-dead assay. […] According to the correlation between cell viability and morphology changes with respect to Alpha-cypermethrin concentration obtained from the toxicity testing on HL-1 cells seeded in 96-well plates, the experimental conditions used in this example established a concentration gradient of the toxin from 12.5 mM to 0 mM along the 5 cm-length channel based on the assay conducted in this example.

HL-1 cells [2] = assay: Cytotoxicity testing of a stabilized toxin concentration gradient on HL-1 cells in the microfluidic channel; assay type: cell-based
Description: HL-1 cells (Cardiac muscle cell line) were cultured with medium containing 87% Claycomb Medium, 10% Fetal Bovine Serum (FBS), 1% Penicillin/Streptomycin, 1% Norepinephrine, and 1% L-Glutamine at 37° C. in a humidified 5% CO2/95% air incubator. To enhance the cell adhesion, the bottom glass slide was coated with a mixture of extracellular matrix (0.02% gelatin (w/w) and 5 μg/mL fibronectin) after the top channel was bonded to the bottom glass slide. To seed the cells into the microfluidic device, the cells were trypsinized and seeded through the outlet port using dynamic seeding at a cell density of 2×10^6 cells mL-1 that allowed uniform cell distribution. Cells were cultured for 2 h to ensure attachment. The medium was then changed and 3 drops of 2 μL medium containing 20 mM Alpha-cypermethrin were introduced by passive pumping and a concentration gradient was established by leaving the microfluidic device in the hood for 5 min to allow for evaporation-induced backflow. The microfluidic device was then transferred to a humidified incubator where the concentration gradient of the toxin was stabilized and the cells were treated for 4 h. […] ImageJ was used to quantify the fluorescence images of live-dead staining of the cells. At least three images were used for quantification of the cell viability. […]

Question: Which cell morphology (HL-1 cells [1]) does the source give for `CC1(C)C(C=C(Cl)Cl)C1C(=O)OC(C#N)c1cccc(Oc2ccccc2)c1` (stereo not drawn) [Alpha-cypermethrin] here?
Answer: drastic morphological change

Question: What about the “cell morphology along the channel” value (HL-1 cells [2]; HL-1 cells exposed 4 h to toxin gradient (loaded 20 mM; gradient 12.5 mM to 0 mM along 5 cm channel)) of the same compound?
Answer: more severe effects observed in the regions containing higher concentrations of toxin

Question: And the “cell viability (live-dead assay)” value (HL-1 cells [2]; HL-1 cells exposed 4 h to toxin gradient along the channel)?
Answer: correlation of cell viability was found with the toxin concentration gradient
